The values below come from PubChem BioAssay (NCI).

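Tested at 5 concentrations; 48 h exposure; 96-well plates; endpoints linearly interpolated, else capped at highest concentration. GI50 = concentration required for 50% inhibition of growth. The concentration for full growth arrest is given as TGI.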 A value given as a limit tells only on which side of the number the result lay.

Common to all, as to test: NCI anticancer screen, dose series, 48 h
Assay [1] concerns HCC-2998 colon.
The test system of assay [2] is IGROV1 ovarian.
In assay [3] the test system is K-562 leukemia.
Assay [4] concerns NCI-H522 lung.
The subject of assay [5] is SF-295 CNS.
Assay [6] has as its system T-47D breast.
Assay [7] has as its system TK-10 renal.
Assay [8] has as its system UACC-257 melanoma.
Assay [9] relates to EKVX NSCLC.
The test system of assay [10] is MOLT-4 leukemia.

In the case of `CCCC(=O)Nc1cc2c3c(c1)CCCN3CCC2`, the TGI in assay [1], in assay [2], in assay [3], in assay [4], in assay [5] and in assay [6] was over 10 µM throughout. The TGI in assay [7] and in assay [8] was over 10 µM each time.

`O=C(c1ccccc1)c1cc2ccccc2o1`: the GI50 was 32.6 µM in assay [9]; over 100 µM in [1]; 25.4 µM in assay [2]; 82.1 µM in [4]; 71.7 µM in assay [5]; 83.3 µM in assay [6]. Also, the figures for the GI50 in assay [7] and in assay [8] were over 100 µM and 77.9 µM, respectively. Besides, the TGI in assay [9], in assay [1], in [2], in assay [4], in assay [5] and in assay [6] was over 100 µM in each case. Moreover, the TGI in assay [7] and in assay [8] was over 100 µM each time.

For the compound `Nc1c(C(=O)Nc2ccncc2)sc2nc3c(cc12)CCCCCCCC3`, the GI50 in [9] was 0.851 µM; in [1] it was 0.9 µM; in [2] it was 0.933 µM; in assay [10] it was 1.22 µM; in assay [5], 0.907 µM; in assay [6], 0.94 µM. For the same compound, the figures for the GI50 in assay [7] and in [8] were 1.17 µM and 0.948 µM, respectively. For the same compound, the TGI stood at 1.63 µM in assay [9]; 1.63 µM in assay [1]; 1.82 µM in assay [2]; 2.76 µM in assay [10]; 1.69 µM in [5]; 2.21 µM in [6]. In addition, the results for the TGI in assay [7] and in assay [8] were 1.98 µM and 1.74 µM, respectively.

In the case of `COc1ccc(C(=O)/C=C/c2cc(-c3cc(OC)c(OC)c(OC)c3)n[nH]2)cc1OC`, the GI50 is 2.13 µM in assay [1]; 1.8 µM in [2]; 1.91 µM in assay [3]; 2.11 µM in assay [10]; 0.184 µM in assay [4]; 1.63 µM in assay [6]. The GI50 in assay [7] is 1.33 µM; in assay [8], 1.49 µM. Also, the TGI in assay [1] was 3.78 µM; in assay [2], 3.41 µM; in assay [3], 7.12 µM; in [10], 5.56 µM; in [4], 0.39 µM; in [6], 4.36 µM. Also, the TGI in assay [7] came to 2.6 µM; in assay [8], 2.83 µM.

Take `Cc1c2c(C#N)nccc2c(C)c2c1c1ccccc1n2Cc1ccccc1`: the TGI in assay [9], in assay [1], in assay [2], in [3], in assay [5] and in assay [6] was over 100 µM throughout. For the same compound, the TGI in assay [7] and in assay [8] was over 100 µM each time.

In the case of `O=C(CSc1nc2ccccc2nc1-c1ccccc1)Nc1ccc(F)cc1`, the GI50 was 75 µM in assay [9]; 49.6 µM in [1]; 42.4 µM in assay [2]; 30.8 µM in assay [3]; 24.2 µM in [4]; 40.6 µM in assay [5]. Further, the GI50 in assay [6] was 19.2 µM; in assay [7] it was 41.1 µM; in assay [8] it was 92.8 µM. The TGI in assay [9], in assay [1], in assay [2], in [3], in assay [4] and in [5] was over 100 µM throughout. The TGI in assay [6] was 99.4 µM; in assay [7], over 100 µM; in assay [8], over 100 µM.

Consider `C#C[C@]1(O)CCC2C3CCc4cc(O)ccc4C3CC[C@@]21C` (stereo partly specified), for which the GI50 in assay [9] is 1.66 µM; in assay [1], 9.88 µM; in assay [2] it was 11.2 µM; in assay [10], 3.65 µM; in [4], 3.47 µM; in assay [5], 2.7 µM. The GI50 in assay [6] was 6.91 µM; in [7], 10.3 µM; in assay [8] it was 10.4 µM. The TGI was over 100 µM in assay [9]; 63.5 µM in [1]; 52.4 µM in [2]; 26.3 µM in assay [10]; 20.5 µM in assay [4]; 12.2 µM in assay [5]. Moreover, the results for the TGI in [6], in assay [7] and in assay [8] were 24.4 µM, over 100 µM and 41.4 µM, respectively.

With `CNCC#Cc1c(F)ccc2c1/C(=C/c1[nH]ccc1OC)C(=O)N2`, the GI50 is 0.398 µM in assay [1]; 0.317 µM in [2]; 0.65 µM in assay [3]; 0.132 µM in assay [10]; 0.299 µM in assay [4]; 0.389 µM in [5]. Further, the GI50 in [6] was 0.671 µM; in assay [7] it was 0.098 µM; in assay [8], 0.619 µM. Also, the TGI came out at 1.63 µM in assay [1]; 3.15 µM in [2]; 3.61 µM in assay [3]; 2.26 µM in assay [10]; 1.17 µM in assay [4]; 3.55 µM in assay [5]. Moreover, the TGI stood at 4.36 µM in [6], 1.89 µM in assay [7] and 2.91 µM in [8].

Consider `CN(C)CC[PH+](c1ccccc1)c1ccccc1.CN(C)CC[PH+](c1ccccc1)c1ccccc1.[Cl-].[Pd+2]`, for which the GI50 is over 100 µM in [9]; over 100 µM in [1]; over 100 µM in [2]; 27.8 µM in assay [3]; 73.6 µM in assay [4]; over 100 µM in assay [5]. For the same compound, the GI50 in assay [6], in [7] and in assay [8] was over 100 µM in each case. Moreover, the TGI in assay [9], in [1], in assay [2], in assay [3], in [4] and in [5] was over 100 µM throughout. In addition, the TGI in assay [6], in assay [7] and in [8] was over 100 µM in each case.

For the compound `O=C(CC1(O)C(=O)N(Cc2ccccc2)c2ccc(F)cc21)c1ccc(C(=O)NCC2CCC3(CC2)OOC2(CCCCC2)OO3)cc1` (stereo unspecified), the GI50 in [9] was 0.412 µM; in assay [1], 1.84 µM; in assay [2] it was 0.236 µM; in assay [4], 0.187 µM; in assay [5], 0.654 µM; in assay [6], 0.843 µM. Also, the results for the GI50 in assay [7] and in [8] were 0.191 µM and 4.78 µM, respectively. Further, the TGI in assay [9] was determined as 1.25 µM; in [1], 3.92 µM; in [2] it was 0.62 µM; in [4] it was 0.396 µM; in assay [5], 1.69 µM; in assay [6], 3.11 µM. Besides, the figures for the TGI in assay [7] and in assay [8] were 0.413 µM and 31.7 µM, respectively.

Take `C=C(C)[C@@H]1CC[C@]2(C)[C@H](CC=C3[C@@H]4CC(C)(C)CC[C@]4(C(N)=O)CC[C@]32C)[C@@]1(C)CCC#N`: the GI50 in assay [9] is 3.6 µM; in assay [1], 4.02 µM; in assay [2] it was 3.92 µM; in assay [3], 2.54 µM; in assay [4], 3.07 µM; in [5], 3.91 µM. Also, the GI50 in assay [6] is 3.27 µM; in [7], 7.32 µM; in [8], 4.09 µM. In addition, the TGI in [9], in [1], in [2], in assay [3], in assay [4] and in assay [5] was over 100 µM in each case. For the same compound, the TGI in assay [6], in assay [7] and in assay [8] was over 100 µM throughout.

Turning to `COc1cc(-c2cc(-c3cc4c([nH]c5ccccc54)c(-c4cc(OC)c(OC)c(OC)c4)n3)cc(-c3ccccc3)n2)cc(OC)c1OC`, the GI50 in [1] was 7.3 µM; in [2], 6.44 µM; in assay [3], 3.39 µM; in assay [10], 4.09 µM; in [4], 2.32 µM; in assay [6], 2.8 µM. Moreover, the GI50 in [7] is 4.5 µM; in assay [8] it was 6.14 µM. Moreover, the TGI was over 100 µM in assay [1]; over 100 µM in [2]; over 100 µM in assay [3]; 41.9 µM in assay [10]; 8.01 µM in [4]; 35.4 µM in assay [6]. Further, the TGI in assay [7] was 31.2 µM; in [8], 44.6 µM.

For the compound `O=C(Nc1ccncc1)C(=O)c1cn(S(=O)(=O)c2ccc(F)cc2)c2ccccc12`, the GI50 in [9] was 3.9 µM; in [1], 8.57 µM; in [2], 4.23 µM; in [10], 5.22 µM; in assay [4], 0.823 µM; in assay [5], 3.01 µM. Besides, the GI50 in assay [6] is 2.24 µM; in [7], 19.2 µM; in assay [8], 11.7 µM. For the same compound, the TGI in [9] is over 100 µM; in [1], over 100 µM; in assay [2], over 100 µM; in [10], over 100 µM; in assay [4], over 100 µM; in assay [5] it was 38.1 µM. Further, the TGI in [6] was 61 µM; in [7] it was 72.4 µM; in assay [8] it was over 100 µM.

In the case of `OCC1OC(c2nc(C3=NCCCN3)cs2)C(O)C1O` (stereo unspecified), the TGI in assay [9], in [1], in [2], in [3], in assay [10] and in [4] was over 100 µM each time. Besides, the TGI in assay [5] was over 10 µM; in [7], over 100 µM; in [8], over 100 µM.

Turning to `CCOc1ccc(NC(=O)CC#N)cc1`, the TGI in [9], in assay [1], in [2], in assay [3], in assay [10] and in [4] was over 100 µM each time. The TGI in assay [5], in assay [7] and in assay [8] was over 100 µM throughout.

Turning to `CC(=O)Oc1c2c(c(O)c3ccccc13)C(n1cnc3c(ncn3C3OC(CO)C4OC(C)(C)OC43)c1=N)CCC2` (stereo unspecified), the TGI in [9] was 36.9 µM; in [1], 28.4 µM; in [2] it was 40.9 µM; in [3], 30 µM; in assay [10] it was 35.9 µM; in assay [4] it was 19.3 µM. Further, the TGI came to 27 µM in assay [5], 35.9 µM in assay [7] and 21.8 µM in [8].

With `O=C(CCc1n[nH]c(=S)o1)Nc1ccccc1C(F)(F)F`, the TGI in assay [9], in assay [1], in assay [2], in [3], in [10] and in assay [4] was over 100 µM in each case. The TGI in assay [5], in assay [7] and in assay [8] was over 100 µM throughout.

Consider `O=C1C=CC(=O)c2cc3cc(CBr)ccc3cc21`, for which the GI50 is 24.1 µM in assay [9]; 6.16 µM in [1]; 7.75 µM in assay [2]; 0.339 µM in assay [3]; 4.33 µM in [4]; 25.9 µM in [5]. The GI50 in [6] is 2.12 µM; in assay [7], 3.54 µM; in assay [8], 56.9 µM. The TGI in assay [9] is 55.7 µM; in [1], 19.2 µM; in assay [2], over 73.9 µM; in assay [3], 6.03 µM; in assay [4] it was over 25.8 µM; in assay [5], over 73.9 µM. Moreover, the TGI was over 26.2 µM in [6], 16.7 µM in assay [7] and over 100 µM in assay [8].

Regarding `CN(C)CC1CCCC/C1=N/OC(=O)c1ccc(Cl)cc1` (stereo unspecified), the TGI in assay [9], in [1], in assay [2], in [3], in assay [10] and in assay [4] was over 100 µM throughout. For the same compound, the TGI in assay [5], in assay [7] and in [8] was over 100 µM in each case.

Turning to `Cc1[nH]c2ccccc2c1C(=O)/C=C/c1ccccc1O`, the TGI in [9], in assay [1], in [2], in assay [3], in assay [10] and in [4] was over 100 µM in each case. Further, the TGI in assay [5], in [7] and in assay [8] was over 100 µM each time.
